Format in all cases: cell-based
The target of experiment [1] is T1, noradrenaline transporter/SLC6A2 (NET) (Homo sapiens, UniProt P23975).
T1 construct: expressed in transfected cells; host or cells: HEK293
The experiment in a line: Cellular uptake experiments: [3H]-noradrenaline reuptake inhibition in transporter-expressing HEK293 cells. As to conditions: for activity on NET (reuptake inhibition), in words: at 50 µM / tested concentration range. The protocol: (§1) Cell culture. Human embryonic kidney (HEK) 293 or SK-N-MC (human neuroblastoma) cells were grown in minimum essential medium with Earle’s salts and L-glutamine, 10% heat-inactivated fetal bovine serum, and 50 mg/L gentamicin. Cells were grown in 100- or 60-mm diameter tissue culture dishes (polystyrene, Falcon) at 37 °C under an atmosphere of 5% CO2/95% air. The human dopamine transporter/SLC6A3 (DAT), noradrenaline transporter/SLC6A2 (NET), or human serotonin transporter/SLC6A4 (SERT) cDNA was stably expressed using methods as described previously.
(§2) Cellular uptake experiments. The transporter-expressing HEK293 cells were seeded in poly-D-lysine-coated 24-well plates (1 × 10^5 cells/well) and, one day later, each well was washed with 0.5 mL uptake buffer and incubated with 0.5 mL buffer containing various concentrations of the drugs. Uptake was started by the addition of [^3H]-dopamine, [^3H]-noradrenaline, or [^3H]-serotonin at a final concentration of 1 µM (specific activity 0.14 Ci/mmol) after 5 min of preincubation. After incubation for 2.5 min (SERT-cells: 5 min) at 25 °C, it was stopped by aspirating the uptake buffer and washing each well twice with 1 mL ice-cold buffer. Nonspecific uptake was determined in the presence of 10 µM mazindol (DAT- and NET-cells) or 10 µM clomipramine (SERT-cells). The radioactivity remaining in each well was determined by incubating with 0.4 mL 1% sodium dodecyl sulphate and transferring this solution into scintillation vials containing 3 mL of scintillation cocktail (Ultima Gold MV, Packard, Dovners Grove, IL, USA). The uptake buffer consisted of (mmol/L): 4 Tris–HCl; 6.25 4-(2-hydroxyethyl)-1-piperazineethanesulfonic acid (HEPES); 120 NaCl; 5 KCl; 1.2 CaCl2; 1.2 MgSO4; 5.6 D-glucose; 0.5 ascorbic acid; pH 7.1.

Experiment [2] addresses T2, human dopamine transporter/SLC6A3 (DAT) (Homo sapiens, UniProt Q01959).
T2 construct: expressed in transfected cells; host or cells: HEK293
The experiment is described as follows: Cellular uptake experiments: [3H]-dopamine reuptake inhibition in transporter-expressing HEK293 cells. As to conditions: for IC50: cells stably expressing DAT, [3H]-dopamine 1 µM, screening cut-off 50 µM; for activity on DAT (reuptake inhibition), in words: at 50 µM. The protocol:
as §1, §2

Experiment [3] has as its target T3, human serotonin transporter/SLC6A4 (SERT) (Homo sapiens, UniProt P31645).
T3 construct: expressed in transfected cells; host or cells: HEK293
The experiment is described as follows: Cellular uptake experiments: [3H]-serotonin reuptake inhibition in transporter-expressing HEK293 cells. As to conditions: for IC50: cells stably expressing SERT, [3H]-serotonin 1 µM, screening cut-off 50 µM; for activity on SERT (reuptake inhibition), in words: at 50 µM / tested concentration range. The protocol:
as §1, §2

Setting [4] is: cells stably expressing NET, [3H]-noradrenaline 1 µM, screening cut-off 50 µM, read-out: Reuptake Inhibition (IC50 ± SE, µM) NET.
Where [5] appears, read: read-out: Reuptake Inhibition (IC50 ± SE, µM) DAT.
Setting [6] is: read-out: Reuptake Inhibition (IC50 ± SE, µM) SERT.
The mark [7] stands for this setting: Reuptake Inhibition (IC50 ± SE, µM) NET, cells stably expressing NET, [3H]-noradrenaline 1 µM, screening cut-off 50 µM.
Where [8] appears, read: Reuptake Inhibition (IC50 ± SE, µM) DAT.
The mark [9] stands for this setting: Reuptake Inhibition (IC50 ± SE, µM) SERT.

Where two headings read alike, the source gives them in different places.

The text below walks through data of article PMC10527105, “Chirality Matters: Fine-Tuning of Novel Monoamine Reuptake Inhibitors Selectivity through Manipulation of Stereochemistry” (Biomolecules, 2023).

Usually IC50 stands for the concentration at which inhibition is half-maximal.

T3 sequence (P31645 whole entry): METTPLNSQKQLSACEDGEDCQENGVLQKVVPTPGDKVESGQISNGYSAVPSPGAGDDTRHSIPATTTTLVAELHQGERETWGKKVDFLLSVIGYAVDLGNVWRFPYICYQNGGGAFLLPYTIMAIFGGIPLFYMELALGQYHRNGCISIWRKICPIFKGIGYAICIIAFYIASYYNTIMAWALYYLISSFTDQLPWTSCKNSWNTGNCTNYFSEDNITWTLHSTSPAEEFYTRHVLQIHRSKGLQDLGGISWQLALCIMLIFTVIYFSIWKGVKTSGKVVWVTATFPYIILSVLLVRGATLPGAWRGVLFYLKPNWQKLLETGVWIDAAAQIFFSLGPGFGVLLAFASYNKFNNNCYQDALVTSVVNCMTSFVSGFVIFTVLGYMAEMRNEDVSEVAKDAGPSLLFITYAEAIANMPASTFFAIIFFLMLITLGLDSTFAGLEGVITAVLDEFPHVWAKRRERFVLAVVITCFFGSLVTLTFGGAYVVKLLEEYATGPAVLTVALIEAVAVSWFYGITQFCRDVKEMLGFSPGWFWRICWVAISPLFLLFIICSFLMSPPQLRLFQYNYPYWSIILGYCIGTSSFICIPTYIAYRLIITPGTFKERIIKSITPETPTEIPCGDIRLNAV
T2 sequence (Q01959 whole entry): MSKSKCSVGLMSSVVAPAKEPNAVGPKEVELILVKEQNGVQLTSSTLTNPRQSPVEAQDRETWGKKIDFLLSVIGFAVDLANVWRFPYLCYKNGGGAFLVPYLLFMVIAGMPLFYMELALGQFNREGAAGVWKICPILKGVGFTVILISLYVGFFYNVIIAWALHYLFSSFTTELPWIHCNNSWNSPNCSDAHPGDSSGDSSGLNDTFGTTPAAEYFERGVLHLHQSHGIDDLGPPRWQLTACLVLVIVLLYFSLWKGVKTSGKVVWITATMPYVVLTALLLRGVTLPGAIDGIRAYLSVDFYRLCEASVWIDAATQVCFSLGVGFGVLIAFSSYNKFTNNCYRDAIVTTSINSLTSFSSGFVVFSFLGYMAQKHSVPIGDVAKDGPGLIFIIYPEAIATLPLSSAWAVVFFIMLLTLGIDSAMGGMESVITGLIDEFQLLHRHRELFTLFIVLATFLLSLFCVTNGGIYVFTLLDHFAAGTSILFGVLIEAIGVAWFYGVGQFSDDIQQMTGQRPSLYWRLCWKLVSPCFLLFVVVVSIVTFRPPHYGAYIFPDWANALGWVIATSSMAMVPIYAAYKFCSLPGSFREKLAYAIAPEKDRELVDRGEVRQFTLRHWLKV
T1 sequence (P23975 whole entry): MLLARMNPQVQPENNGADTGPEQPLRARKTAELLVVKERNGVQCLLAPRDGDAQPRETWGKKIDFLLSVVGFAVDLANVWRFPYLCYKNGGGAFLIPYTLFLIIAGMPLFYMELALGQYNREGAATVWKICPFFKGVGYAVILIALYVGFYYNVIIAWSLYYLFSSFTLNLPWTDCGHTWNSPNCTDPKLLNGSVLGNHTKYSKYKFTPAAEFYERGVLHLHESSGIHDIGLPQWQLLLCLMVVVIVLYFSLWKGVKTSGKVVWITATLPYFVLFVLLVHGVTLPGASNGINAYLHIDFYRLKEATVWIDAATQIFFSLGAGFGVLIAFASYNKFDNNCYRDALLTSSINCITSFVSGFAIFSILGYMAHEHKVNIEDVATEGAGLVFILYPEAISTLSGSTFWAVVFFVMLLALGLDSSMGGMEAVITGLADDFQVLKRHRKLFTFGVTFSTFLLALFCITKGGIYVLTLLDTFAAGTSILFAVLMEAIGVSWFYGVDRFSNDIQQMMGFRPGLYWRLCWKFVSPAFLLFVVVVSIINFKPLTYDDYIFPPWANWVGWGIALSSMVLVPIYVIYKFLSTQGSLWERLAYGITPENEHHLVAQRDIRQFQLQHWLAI

Turning to `[O-][S@+](Cc1cccs1)[C@H](c1ccccc1)c1ccccc1F` [Compound 5a, (R,R)-2-((((2-fluorophenyl)(phenyl)methyl)sulfinyl)methyl)thiophene], the IC50 in experiment [1] (setting [4]) is over 50 µM; in experiment [2] (setting [5]), 32.8 ± 0.2 µM; in experiment [3] (setting [6]), over 50 µM.
`[O-][S+](Cc1cccs1)C(c1ccccc1)c1cccc(F)c1` (stereo not drawn) [Compound 5b, 2-((((3-fluorophenyl)(phenyl)methyl)sulfinyl)methyl)thiophene]: the IC50 in experiment [1] (setting [4]) was over 50 µM; in experiment [2] (setting [5]), 3.2 ± 0.4 µM; in experiment [3] (setting [6]) it was over 50 µM.
`[O-][S+](Cc1cccs1)C(c1ccccc1)c1ccc(F)cc1` (stereo not drawn) [Compound 5c, 2-((((4-fluorophenyl)(phenyl)methyl)sulfinyl)methyl)thiophene]: the 50% inhibitory concentration (IC50) in experiment [1] (setting [4]) was over 50 µM; in experiment [2] (setting [5]), 7.8 ± 0.7 µM; in experiment [3] (setting [6]) it was over 50 µM.
For the compound `[O-][S@+](Cc1cccs1)[C@H](c1ccccc1)c1ccccc1Cl` [Compound 5d, (R,R)-2-((((2-chlorophenyl)(phenyl)methyl)sulfinyl)methyl)thiophene], the “activity on NET (reuptake inhibition), in words” value in experiment [1] was “did not achieve ≥50% of radioligand displacement”. Moreover, the half-inhibitory concentration (IC50) in experiment [1] (setting [4]), in experiment [2] (setting [5]) and in experiment [3] (setting [6]) was over 50 µM throughout. The “activity on DAT (reuptake inhibition), in words” value in experiment [2] is listed as “did not achieve ≥50% of radioligand displacement”. In addition, the “activity on SERT (reuptake inhibition), in words” value in experiment [3] is reported as “did not achieve ≥50% of radioligand displacement”.
As to `[O-][S@@+](Cc1cccs1)[C@H](c1ccccc1)c1cccc(Cl)c1` [Compound 5e, (S,R)-2-((((3-chlorophenyl)(phenyl)methyl)sulfinyl)methyl)thiophene], the 50% inhibitory concentration (IC50) in experiment [1] (setting [7]) is over 50 µM; in experiment [2] (setting [8]), 3 ± 0.1 µM; in experiment [3] (setting [9]) it was over 50 µM.
Regarding `[O-][S@@+](Cc1cccs1)[C@H](c1ccccc1)c1ccc(Cl)cc1` [Compound 5f, (S,R)-2-((((4-chlorophenyl)(phenyl)methyl)sulfinyl)methyl)thiophene], the 50% inhibitory concentration (IC50) in experiment [1] (setting [7]) was over 50 µM; in experiment [2] (setting [8]), 12 ± 1 µM; in experiment [3] (setting [9]), over 50 µM.
In the case of `[O-][S+](Cc1cccs1)C(c1ccccc1)c1ccccc1Br` (stereo not drawn) [Compound 5g, 2-((((2-bromophenyl)(phenyl)methyl)sulfinyl)methyl)thiophene], the 50% inhibitory concentration (IC50) in experiment [1] (setting [7]), in experiment [2] (setting [8]) and in experiment [3] (setting [9]) was over 50 µM each time. The “activity on NET (reuptake inhibition), in words” value in experiment [1] was “no effect”. The “activity on DAT (reuptake inhibition), in words” value in experiment [2] is listed as “no effect”. Also, the “activity on SERT (reuptake inhibition), in words” value in experiment [3] was “no effect”.
`[O-][S@@+](Cc1cccs1)[C@H](c1ccccc1)c1cccc(Br)c1` [Compound 5h, (S,R)-2-((((3-bromophenyl)(phenyl)methyl)sulfinyl)methyl)thiophene]: the IC50 was over 50 µM in experiment [1], 1.8 ± 0.4 µM in experiment [2] (setting [8]) and over 50 µM in experiment [3] (setting [9]).
On to `[O-][S+](Cc1cccs1)C(c1ccccc1)c1ccccc1I` (stereo not drawn) [Compound 5i, 2-((((2-iodophenyl)(phenyl)methyl)sulfinyl)methyl)thiophene], for which the IC50 in experiment [1] (setting [7]), in experiment [2] (setting [8]) and in experiment [3] (setting [9]) was over 50 µM each time.
In the case of `[O-][S+](Cc1cccs1)C(c1ccccc1)c1cccc(I)c1` (stereo not drawn) [Compound 5j, 2-((((3-iodophenyl)(phenyl)methyl)sulfinyl)methyl)thiophene], the IC50 in experiment [1] (setting [7]) was over 50 µM; in experiment [2] (setting [8]) it was 2.09 ± 0.21 µM; in experiment [3] (setting [9]), over 50 µM.
On to `[O-][S@@+](Cc1cccs1)[C@H](c1ccccc1)c1ccc(I)cc1` [Compound 5k, (S,R)-2-((((4-iodophenyl)(phenyl)methyl)sulfinyl)methyl)thiophene], for which the IC50 in experiment [1] (setting [7]) is over 50 µM; in experiment [2] (setting [8]), 5.1 ± 0.6 µM; in experiment [3] (setting [9]), over 50 µM.
Take `Cc1ccccc1C(c1ccccc1)[S+]([O-])Cc1cccs1` (stereo not drawn) [Compound 5l, 2-(((phenyl(o-tolyl)methyl)sulfinyl)methyl)thiophene]: the results for the half-inhibitory concentration (IC50) in experiment [1] (setting [4]), in experiment [2] (setting [5]) and in experiment [3] (setting [6]) were over 50 µM, 15.6 ± 1 µM and over 50 µM, respectively.
On to `Cc1cccc([C@@H](c2ccccc2)[S@@+]([O-])Cc2cccs2)c1` [Compound 5m, (S,R)-2-(((phenyl(m-tolyl)methyl)sulfinyl)methyl)thiophene], for which the 50% inhibitory concentration (IC50) in experiment [1] (setting [7]) was over 50 µM; in experiment [2] (setting [8]), 2.2 ± 0.4 µM; in experiment [3] (setting [9]), over 50 µM.
Consider `Cc1ccc(C(c2ccccc2)[S+]([O-])Cc2cccs2)cc1` (stereo not drawn) [Compound 5n, 2-(((phenyl(p-tolyl)methyl)sulfinyl)methyl)thiophene], for which the figures for the half-maximal inhibitory concentration (IC50) in experiment [1] (setting [7]), in experiment [2] (setting [5]) and in experiment [3] (setting [6]) were over 50 µM, 3.97 ± 0.21 µM and over 50 µM, respectively.
`[O-][S+](Cc1cccs1)C(c1ccccc1)c1ccccc1C(F)(F)F` (stereo not drawn) [Compound 5o, 2-(((phenyl(2-(trifluoromethyl)phenyl)methyl)sulfinyl)methyl)thiophene]: the half-maximal inhibitory concentration (IC50) in experiment [1] (setting [7]) is 25 ± 1 µM; in experiment [2] (setting [8]) it was over 50 µM; in experiment [3] (setting [9]), over 50 µM.
As for `[O-][S+](Cc1cccs1)C(c1ccccc1)c1cccc(C(F)(F)F)c1` (stereo not drawn) [Compound 5p, 2-(((phenyl(3-(trifluoromethyl)phenyl)methyl)sulfinyl)methyl)thiophene], the IC50 in experiment [1] (setting [7]) was over 50 µM; in experiment [2] (setting [8]) it was 5 ± 1 µM; in experiment [3] (setting [9]), over 50 µM.
As for `[O-][S+](Cc1cccs1)C(c1ccccc1)c1ccc(C(F)(F)F)cc1` (stereo not drawn) [Compound 5q, 2-(((phenyl(4-(trifluoromethyl)phenyl)methyl)sulfinyl)methyl)thiophene], the concentration for half-maximal inhibition (IC50) in experiment [1] (setting [7]) is over 50 µM; in experiment [2] (setting [8]) it was 17 ± 2 µM; in experiment [3] (setting [9]), over 50 µM.
For `COc1ccccc1[C@@H](c1ccccc1)[S@+]([O-])Cc1cccs1` [Compound 5r, (R,R)-2-((((2-methoxyphenyl)(phenyl)methyl)sulfinyl)methyl)thiophene], the IC50 in experiment [1] (setting [7]) was over 50 µM; in experiment [2] (setting [8]) it was 31 ± 8 µM; in experiment [3] (setting [9]), over 50 µM.
As to `COc1cccc(C(c2ccccc2)[S+]([O-])Cc2cccs2)c1` (stereo not drawn) [Compound 5s, 2-((((3-methoxyphenyl)(phenyl)methyl)sulfinyl)methyl)thiophene], the concentration for half-maximal inhibition (IC50) was over 50 µM in experiment [1] (setting [7]), 2.89 ± 0.47 µM in experiment [2] (setting [8]) and over 50 µM in experiment [3] (setting [9]).
For `COc1ccc([C@H](c2ccccc2)[S@@+]([O-])Cc2cccs2)cc1` [Compound 5t, (S,S)-2-((((4-methoxyphenyl)(phenyl)methyl)sulfinyl)methyl)thiophene], the 50% inhibitory concentration (IC50) in experiment [1] (setting [7]) is over 50 µM; in experiment [2] (setting [8]), 16 ± 6 µM; in experiment [3] (setting [9]) it was over 50 µM.
Regarding `[O-][S+](Cc1cccs1)C(c1ccc(F)cc1)c1ccc(Cl)cc1` (stereo not drawn) [Compound 5u, 2-((((4-chlorophenyl)(4-fluorophenyl)methyl)sulfinyl)methyl)thiophene], the half-maximal inhibitory concentration (IC50) in experiment [1] (setting [7]) was over 50 µM; in experiment [2] (setting [8]), 4.5 ± 1.8 µM; in experiment [3] (setting [9]), over 50 µM.
Turning to `[O-][S@@+](Cc1cccs1)[C@@H](c1ccccc1)c1ccccc1F` [Compound 6a, (S,S)-2-((((2-fluorophenyl)(phenyl)methyl)sulfinyl)methyl)thiophene], the IC50 is over 50 µM in experiment [1] (setting [4]), 13.3 ± 1.6 µM in experiment [2] (setting [5]) and over 50 µM in experiment [3] (setting [6]).
Turning to `[O-][S+](Cc1cccs1)C(c1ccccc1)c1cccc(F)c1` (stereo not drawn) [Compound 6b, 2-((((3-fluorophenyl)(phenyl)methyl)sulfinyl)methyl)thiophene], the half-inhibitory concentration (IC50) is over 50 µM in experiment [1] (setting [4]), 28 ± 7 µM in experiment [2] (setting [5]) and over 50 µM in experiment [3] (setting [6]).
As for `[O-][S+](Cc1cccs1)C(c1ccccc1)c1ccc(F)cc1` (stereo not drawn) [Compound 6c, 2-((((4-fluorophenyl)(phenyl)methyl)sulfinyl)methyl)thiophene], the values for the IC50 in experiment [1] (setting [4]), in experiment [2] (setting [5]) and in experiment [3] (setting [6]) were over 50 µM, 10.1 ± 0.3 µM and over 50 µM, respectively.
For the compound `[O-][S@@+](Cc1cccs1)[C@@H](c1ccccc1)c1ccccc1Cl` [Compound 6d, (S,S)-2-((((2-chlorophenyl)(phenyl)methyl)sulfinyl)methyl)thiophene], the IC50 was over 50 µM in experiment [1] (setting [4]), 14.4 ± 2.4 µM in experiment [2] (setting [5]) and over 50 µM in experiment [3] (setting [6]).
